Where two headings read alike, the source gives them in different places.
Target: T1, human AspH (His6-AspH315–758) (Homo sapiens, UniProt Q12797)
T1 construct: N-Terminally His6-tagged human AspH315–758 (His6-AspH315–758) was produced in Escherichia coli BL21 (DE3) cells; made in house; host or cells: Escherichia coli BL21 (DE3), pET-28a(+) vector
T1 sequence (Q12797 315-758): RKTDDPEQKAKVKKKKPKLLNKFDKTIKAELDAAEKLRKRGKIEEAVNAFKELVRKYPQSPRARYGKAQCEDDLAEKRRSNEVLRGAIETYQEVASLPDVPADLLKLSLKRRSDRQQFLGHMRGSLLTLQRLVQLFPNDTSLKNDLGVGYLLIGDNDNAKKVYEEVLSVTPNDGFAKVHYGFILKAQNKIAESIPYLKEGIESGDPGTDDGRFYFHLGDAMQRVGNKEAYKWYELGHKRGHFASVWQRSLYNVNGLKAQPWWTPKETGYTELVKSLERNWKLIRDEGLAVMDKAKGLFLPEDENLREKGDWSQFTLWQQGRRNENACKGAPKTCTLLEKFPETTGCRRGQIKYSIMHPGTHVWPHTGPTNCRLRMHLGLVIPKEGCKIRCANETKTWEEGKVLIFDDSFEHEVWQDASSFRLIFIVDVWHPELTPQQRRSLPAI
Experiment: SPE-MS AspH inhibition assay (hFX-CP101-119 substrate hydroxylation)
Type: biochemical

[1] = AspH-inhibitor screening, 384-well Plate 1
[2] = AspH-inhibitor screening, 384-well Plate 1, substrate conversion
[3] = AspH-inhibitor screening, Plate 1-duplicate
[4] = AspH-inhibitor screening, Plate 1-duplicate, substrate conversion

Compound | Plate 1 (% inhibition) [1] | Plate 1 (% conversion) [2] | Plate 1-duplicate (% inhibition) [3] | Plate 1-duplicate (% conversion) [4] | Plate 1 (% conversion) | Plate 1 (% inhibition) | Plate 1-duplicate (% conversion) | Plate 1-duplicate (% inhibition)
CNCc1ccc(-c2[nH]c3cc(F)cc4c3c2CCNC4=O)cc1 [AG-014699_Rucaparib] | 17.02% | 41.89% | 9.37% | 47.39% |  |  |  | 
C[C@]1(O)C[C@@H](c2nc(-c3ccc4ccc(-c5ccccc5)nc4c3)c3c(N)nccn32)C1 [OSI-906_Linsitinib] | 4.66% | 47.60% | -12.38% | 58.18% |  |  |  | 
Cc1cn(-c2cc(NC(=O)c3ccc(C)c(Nc4nccc(-c5cccnc5)n4)c3)cc(C(F)(F)F)c2)cn1 [Nilotinib] | -10.38% | 54.54% | -7.89% | 55.95% |  |  |  | 
O=C(CCBr)N1CCN(C(=O)CCBr)CC1 [Pipobroman] | 11.08% | 44.63% | 4.27% | 49.93% |  |  |  | 
C[C@]12C=CC(=O)C=C1CC[C@@H]1[C@@H]2C(=O)C[C@@]2(C)[C@H]1CC[C@]2(O)C(=O)CO [Prednisone] | -2.32% | 50.82% | 2.01% | 51.04% |  |  |  | 
COc1ccc(Cl)c(Nc2nc3ccccc3nc2NS(=O)(=O)c2cccc(NC(=O)C(C)(C)N)c2)c1 [XL-147] | 3.96% | 47.92% | 7.32% | 48.41% |  |  |  | 
C=C1C[C@@H]2[C@H](CC[C@]3(C)C(=O)CC[C@@H]23)[C@@]2(C)C=CC(=O)C=C12 [Exemestane] | -2.81% | 51.05% | 2.16% | 50.97% |  |  |  | 
CN(C)C[C@@H]1CCn2cc(c3ccccc32)C2=C(C(=O)NC2=O)c2cn(c3ccccc23)CCO1.CS(=O)(=O)O [LY 333531 mesylate_Ruboxistaurin] | 10.44% | 44.93% | -5.64% | 54.84% |  |  |  | 
CO[C@H]1C(=O)[C@]2(C)[C@@H](OC)C[C@H]3OC[C@@]3(OC(C)=O)[C@H]2[C@H](OC(=O)c2ccccc2)[C@]2(O)C[C@H](OC(=O)[C@H](O)[C@@H](NC(=O)OC(C)(C)C)c3ccccc3)C(C)=C1C2(C)C [Cabazitaxel] | -8.77% | 53.80% | -20.49% | 62.20% |  |  |  | 
COc1cc2ncnc(Nc3ccc(F)c(Cl)c3)c2cc1OCCCN1CCOCC1 [Gefitinib] | -37.34% | 66.99% | -37.51% | 70.65% |  |  |  | 
CC(C)C[C@H](NC(=O)[C@H](Cc1ccccc1)NC(=O)c1cnccn1)B(O)O [Bortezomib] | 6.81% | 46.61% | 7.89% | 48.13% |  |  |  | 
O=P1(N(CCCl)CCCl)NCCCO1 (stereo not drawn) [Clafen (Cyclophosphamide, Endoxan)] |  |  |  |  | 48.48% | 2.76% | 50.72% | 2.67%
CC[C@H](CO)Nc1nc(NCc2ccccc2)c2ncn(C(C)C)c2n1 [Roscovitine_Selicilib] |  |  |  |  | 48.67% |  | 50.17% | 
NC(=O)c1ccc(I)c([N+](=O)[O-])c1 [Iniparib (BSI-201, IND-71677)] | 6.32% | 46.83% | 5.00% | 49.56% |  |  |  | 
Nc1nc(Cl)nc2c1ncn2[C@@H]1O[C@H](CO)[C@@H](O)[C@@H]1F [Clofarabine] | 6.71% | 46.65% | 3.66% | 50.22% |  |  |  | 
COc1cc2ncnc(Nc3ccc(F)c(Cl)c3)c2cc1NC(=O)/C=C/CN1CCCCC1.O [Dacomitinib (monohydrate) (PF-00299804)] | -68.38% | 81.33% | -15.02% | 59.49% |  |  |  | 
Cc1cc(Nc2ncc(Cl)c(Nc3ccccc3S(=O)(=O)C(C)C)n2)c(OC(C)C)cc1C1CCNCC1 [Ceritinib] | -42.78% | 69.51% | -39.63% | 71.70% |  |  |  | 
Nc1ncn([C@@H]2O[C@H](CO)[C@@H](O)[C@H]2O)c(=O)n1 [Azacitidine] | 17.64% | 41.61% | 12.26% | 45.96% |  |  |  | 

Compound | Plate 1 (% inhibition) [1] | Plate 1 (% conversion) [2] | Plate 1-duplicate (% inhibition) [3] | Plate 1-duplicate (% conversion) [4] | Plate 1 (% conversion) | Plate 1 (% inhibition) | Plate 1-duplicate (% conversion) | Plate 1-duplicate (% inhibition)
Cc1ccc(-c2cc(C(F)(F)F)nn2-c2ccc(S(N)(=O)=O)cc2)cc1 [Celecoxib] | -8.28% | 53.57% | -15.35% | 59.65% |  |  |  | 
N#CCNC(=O)c1ccc(-c2ccnc(Nc3ccc(N4CCOCC4)cc3)n2)cc1 [CYT-387_Momelotinib] | 5.72% | 47.11% | 4.84% | 49.64% |  |  |  | 
COc1c(C)cnc(Cn2cnc3c(Cl)nc(N)nc32)c1C [BIIB021] | 5.65% | 47.14% | 5.00% | 49.56% |  |  |  | 
C=CC(=O)Nc1cc2c(Nc3ccc(F)c(Cl)c3)ncnc2cc1OCCCN1CCOCC1 [Canertinib] | -58.69% | 76.85% | -55.96% | 79.80% |  |  |  | 
OC[C@H]1O[C@@H](n2cnc3c2NC=NC[C@H]3O)C[C@@H]1O [Pentostatin] | 10.69% | 44.81% | 8.07% | 48.04% |  |  |  | 
N#Cc1ccc(C(c2ccc(C#N)cc2)n2cncn2)cc1 [Letrozole] | 6.85% | 46.59% | 3.67% | 50.22% |  |  |  | 
CC[C@H](C)C(=O)O[C@H]1C[C@H](O)C=C2C=C[C@H](C)[C@H](CC[C@@H](O)C[C@@H](O)CC(=O)O)[C@H]21 [Pravastatin] | 12.19% | 44.12% | 8.98% | 47.59% |  |  |  | 
CC[C@@H]1C(=O)OC[C@@H]1Cc1cncn1C [Pilocarpine] | 3.20% | 48.27% | 17.17% | 43.53% |  |  |  | 
Nc1cc(C(F)(F)F)c(-c2cc(N3CCOCC3)nc(N3CCOCC3)n2)cn1 [BKM-120_Buparlisib] | 1.72% | 48.96% | -1.07% | 52.57% |  |  |  | 
COc1cc(F)c(F)c(Nc2ccc(I)cc2F)c1NS(=O)(=O)C1(C[C@H](O)CO)CC1 [RDEA119_Refametinib] | 2.93% | 48.40% | 4.05% | 50.03% |  |  |  | 
Cn1cnc2c(F)c(Nc3ccc(Br)cc3F)c(C(=O)NOCCO)cc21 [ARRY-162_MEK-162] | -1.29% | 50.34% | 1.23% | 51.43% |  |  |  | 
Oc1ccc2c(c1)CC[C@H](c1ccccc1)[C@@H]2c1ccc(OCCN2CCCC2)cc1 [Lasofoxifene] | 4.47% | 47.69% | -1.73% | 52.90% |  |  |  | 
O=S(=O)(c1cccc2cnccc12)N1CCCNCC1 [HA-1077 (Fasudil)] | 1.01% | 49.28% | 12.84% | 45.67% |  |  |  | 
O=C(Nc1c[nH]nc1-c1nc2ccc(CN3CCOCC3)cc2[nH]1)NC1CC1 [AT9283] | -0.09% | 49.79% | 2.46% | 50.82% |  |  |  | 
Bleomycin sulfate | 98.37% | 4.32% | 96.60% | 4.13% |  |  |  | 
AZD4547 | -11.19% | 54.92% | -5.75% | 54.89% |  |  |  | 
CS(=O)(=O)CCNCc1ccc(-c2ccc3ncnc(Nc4ccc(OCc5cccc(F)c5)c(Cl)c4)c3c2)o1.Cc1ccc(S(=O)(=O)O)cc1.Cc1ccc(S(=O)(=O)O)cc1 [Lapatinib, di-p-toluenesulfonate salt] |  |  |  |  | 63.38% | -29.52% | 62.65% | -21.39%

Source: article PMC7588595, “Small-molecule active pharmaceutical ingredients of approved cancer therapeutics inhibit human aspartate/asparagine-β-hydroxylase” (Bioorganic & Medicinal Chemistry, 2020)
